Reference: ChEMBL document CHEMBL1649085

How the values were obtained:
Assay type in all cases: ADME, organism-based
[1] = Ratio of drug level in brain to plasma in rat at 10 mg/kg, po; parameters: dose 10 mg/kg, route oral
[2] = AUC (0 to time) in rat at 10 mg/kg, po; parameters: dose 10 mg/kg, route oral; details: plasma
[3] = Tmax in rat at 10 mg/kg, po; parameters: dose 10 mg/kg, route oral; details: in vivo
Plasma = assay: Drug uptake in rat plasma at 10 mg/kg, po; parameters: dose 10 mg/kg, route oral; details: in vivo
[4] = Cmax in rat at 10 mg/kg, po; parameters: dose 10 mg/kg, route oral; details: in vivo
Brain = assay: Drug uptake in rat brain at 10 mg/kg, po; parameters: dose 10 mg/kg, route oral; details: in vivo, read-out: Drug uptake
[5] = Oral bioavailability in rat at 10 mg/kg, po; details: in vivo

Compound | BPR [1] | AUC(0-t) [2] | Tmax [3] | concentration (Plasma) | Cmax [4] | concentration (Brain) | bioavailability [5]
O=C(O)c1cc(-c2cccc(COc3ccc4c(c3)CN(C3CCCC3)C4=O)c2)ccc1Cl | 0.3 | 106 µM·h | 1.33 h | 12.3 µM | 14.4 µM | 3.8 µM | 40%
Cc1c(OCc2cccc(-c3ccc(C(=O)O)cc3)c2)cc2c(c1C)C(=O)C(C1CCCC1)C2 (stereo not drawn) | – | 0.281 µM·h | 2 h | 0.027 µM | 0.097 µM | – | 33%
O=C(O)c1cc(-c2cccc(COc3ccc4c(=O)n(C5CCCC5)sc4c3)c2)ccc1Cl | 4.8 | 43.3 µM·h | 1.83 h | 1 µM | 4.1 µM | 4.8 µM | –
